Experimental data from PMC4584354, “Synthesis and Antiplasmodial Evaluation of Analogues Based on the Tricyclic Core of Thiaplakortones A–D” (Marine Drugs, 2015).
Where two headings read alike, the source gives them in different places.

Assays:
[1] = system: neonatal foreskin fibroblast (NFF) cells; assay: Mammalian toxicity using human neonatal foreskin fibroblast cells; format: cell-based; conditions: for IC50: Homo sapiens, NFF, read-out: Mean IC50 ± SD, NFF; for SI (selectivity index = NFF cell-line IC50/P. falciparum IC50): range over 3D7 and Dd2 lines
[2] = system: P. falciparum chloroquine-sensitive line (3D7); assay: P. falciparum growth inhibition assay ([3H]-hypoxanthine isotopic microtest), 3D7 line; format: cell-based, Plasmodium falciparum; conditions: for IC50: Plasmodium falciparum, read-out: Mean IC50 ± SD, 3D7; for increase in 3D7 activity on exchanging saturated system (13, 14) for unsaturated motif: 15 vs 13, 16 vs 14
Experimental: (§1) P. falciparum growth inhibition assays were carried out using an isotopic microtest, as previously described [16]. […] The final concentration of DMSO vehicle was <0.5% in all assay wells (non-toxic). After 48 h cells were harvested onto 1450 MicroBeta filter mats (PerkinElmer, Waltham, Massachusetts, USA) and [^3H] incorporation determined using a 1450 MicroBeta liquid scintillation counter. Percentage inhibition of growth compared to matched DMSO controls was determined and IC50 values were calculated using linear interpolation of inhibition curves [17]. The mean IC50 or % inhibition (±SD) was calculated for three independent experiments, each carried out in triplicate.

[3] = system: P. falciparum multidrug-resistant line (Dd2); assay: P. falciparum growth inhibition assay ([3H]-hypoxanthine isotopic microtest), Dd2 line; format: cell-based; conditions: Plasmodium falciparum, read-out: Mean IC50 ± SD, Dd2
Experimental: as §1

Plasmodium falciparum = assay: In vitro P. falciparum growth inhibition (line not given); format: cell-based; conditions: 3D7 and Dd2 lines
blood stage P. berghei = system: blood stage P. berghei; design: method as in PMID 25490858; conditions: mice, subcutaneous 32 mg/kg twice daily for 4 d; cited from earlier work
[4] = design: method as in PMID 25490858; conditions: administered subcutaneously to mice; remained above this level for 8 h; cited from earlier work
[5] = design: method as in PMID 25490858; conditions: subcutaneous 32 mg/kg twice daily for 4 d; cited from earlier work
[6] = design: method as in PMID 25490858; conditions: cited from earlier work
[7] = design: method as in PMID 25490858; conditions: cited from earlier work; remark: listed apart in the source
[8] = system: P. falciparum multidrug-resistant line (Dd2); design: method as in PMID 24032556; conditions: read-out: in vitro IC50, Dd2; cited from earlier work
[9] = system: P. falciparum chloroquine-sensitive line (3D7); design: method as in PMID 24032556; conditions: chloroquine-sensitive (3D7) P. falciparum line; read-out: in vitro IC50, 3D7; cited from earlier work
[10] = neonatal foreskin fibroblast cells
[11] = P. falciparum chloroquine-sensitive line 3D7, 48 h, three independent experiments in triplicate
[12] = P. falciparum multidrug-resistant line Dd2, 48 h, three independent experiments in triplicate

Structure (SMILES)	IC50 [2, 11]	IC50 [3, 12]	IC50 [1, 10]	SI (selectivity index = NFF cell-line IC50/P. falciparum IC50) [1]	other results
O=C1C2=C(C(=O)c3[nH]ccc31)S(=O)(=O)CCN2 [Compound 13]	7500 ± 900 nM	3800 ± 400 nM	39 µM	5.2–10.3	
CCCCNC(=O)NCCc1c[nH]c2c1C(=O)C1=C(NC=CS1(=O)=O)C2=O [Compound 9]					suppression of blood stage P. berghei parasitemia relative to controls (blood stage P. berghei): 26%; plasma concentration [4]: > 0.2 µM; tolerability in mice [5]: well tolerated; solubility [6]: good; metabolic stability [7]: good
NCCc1c[nH]c2c1C(=O)C1=C(NC=CS1(=O)=O)C2=O [Thiaplakortone A, thiaplakortone A]					IC50 [8]: 6.6 nM; IC50 [9]: 51 nM
O=C1C2=C(C(=O)c3[nH]ccc31)S(=O)(=O)C=CN2 [Compound 15]	313 ± 84 nM	129 ± 3.9 nM	2.8 ± 0.4 µM	8.9–21.7	increase in 3D7 activity on exchanging saturated system (13, 14) for unsaturated motif [2]: 23.9 fold
Cc1ccc(S(=O)(=O)n2ccc3c2C(=O)C=CC3=O)cc1 [Compound 10, 1-tosyl-1H-indole-4,7-dione]	18200 nM	11100 nM	7.6 ± 1.2 µM	0.4–0.7	antiplasmodial activity (Plasmodium falciparum): essentially inactive
O=C1C2=C(NCCS2(=O)=O)C(=O)c2[nH]ccc21 [Compound 14]	6900 ± 700 nM	3700 ± 500 nM	69.6 µM	10.1–18.8	
CCN(CC)CCCC(C)Nc1ccnc2cc(Cl)ccc12 (stereo not drawn) [CQ, chloroquine, reference compound]				811.1–4679.5	IC50 [1]: 36.5 µM; IC50 ([2]; 3D7, 48 h): 7.8 ± 2.7 nM; IC50 ([3]; DD2, 48 h): 45 ± 10 nM
CC(=O)NCCc1c[nH]c2c1C(=O)C1=C(NC=CS1(=O)=O)C2=O [Compound 8]					suppression of blood stage P. berghei parasitemia relative to controls (blood stage P. berghei): 52%; plasma concentration [4]: > 0.2 µM; tolerability in mice [5]: well tolerated; solubility [6]: good; metabolic stability [7]: good

Further lines, with some results ahead:

IC50 [2, 11]	IC50 [3, 12]	Structure (SMILES)	IC50 [1, 10]	SI (selectivity index = NFF cell-line IC50/P. falciparum IC50) [1]	other results
546 ± 119 nM	509 ± 309 nM	Cc1ccc(S(=O)(=O)n2ccc3c2C(=O)C2=C(NCCS2(=O)=O)C3=O)cc1 [Compound 11]	1.4 ± 0.7 µM		
13500 nM	11500 nM	O=C1C=CC(=O)c2[nH]ccc21 [Compound 17, 1H-indole-4,7-dione]	4.7 ± 0.1 µM	0.3–0.4	antiplasmodial activity (Plasmodium falciparum): essentially inactive
834 ± 89 nM	607 ± 158 nM	Cc1ccc(S(=O)(=O)n2ccc3c2C(=O)C2=C(C3=O)S(=O)(=O)CCN2)cc1 [Compound 12]	19 µM	22.8–31.3	
252 ± 35 nM	127 ± 8.6 nM	O=C1C2=C(NC=CS2(=O)=O)C(=O)c2[nH]ccc21 [Compound 16]	4.6 ± 0.8 µM	18.2–36.2	increase in 3D7 activity on exchanging saturated system (13, 14) for unsaturated motif [2]: 27.3 fold
